According to ChEMBL document CHEMBL1201862, “PubChem BioAssay data set” (2004):
Calls of active or inactive are those of the source.

What was measured:
[1] = biological target: T1, Tyrosine-protein phosphatase non-receptor type 7 (Homo sapiens, UniProt P35236); assay: redox-dependent HePTP inhibition, mechanism study, biochemical, fluorescence (AID 2068); type: functional
T1 sequence (P35236 whole entry): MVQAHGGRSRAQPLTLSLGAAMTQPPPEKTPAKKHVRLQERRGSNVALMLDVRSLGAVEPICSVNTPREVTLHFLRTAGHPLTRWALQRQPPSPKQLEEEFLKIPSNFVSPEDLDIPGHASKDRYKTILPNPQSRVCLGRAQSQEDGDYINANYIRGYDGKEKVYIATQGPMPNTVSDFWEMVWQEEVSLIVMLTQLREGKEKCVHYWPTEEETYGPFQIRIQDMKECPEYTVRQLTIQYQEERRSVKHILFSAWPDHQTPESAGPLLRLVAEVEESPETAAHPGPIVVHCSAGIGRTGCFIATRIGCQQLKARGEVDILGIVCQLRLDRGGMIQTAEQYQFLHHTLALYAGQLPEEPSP

Troponin, cardiac muscle = Troponin, cardiac muscle (Homo sapiens, UniProt P19429+P45379+P63316); assay: Fluorescence-based biochemical high throughput dose response assay for activators of the calcium sensitivity of cardiac Regulated Thin Filaments (RTF). [Related pubchem assays (depositor defined):AID493008, AID493018, AID504382, AID504383]; type: protein-complex assay
[2] = biological target: T2, Kappa-type opioid receptor (Homo sapiens, UniProt P41145); type: functional
Beta-galactosidase = Beta-galactosidase (Escherichia coli, UniProt Q8VNN2); type: functional
[3] = biological target: T2, Kappa-type opioid receptor; type: functional; remark: listed apart in the source
[4] = biological target: Voltage-dependent T-type calcium channel subunit alpha-1H (Homo sapiens, UniProt O95180); type: functional;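 further: channel activity triggered by adding a high calcium stimulation buffer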
[5] = biological target: Melanin-concentrating hormone receptor 1 (Homo sapiens, UniProt Q99705); assay: Late-stage fluorescence-based counterscreen for antagonists of the G-protein coupled receptor 7 (GPR7): cell-based dose response assay to identify antagonists of the melanin-concentrating hormone receptor 1 (MCHR1). [Related pubchem assays (depositor defined):AID1861, AID1880, AID1952, AID2148, AID2251, AID2257, AID485339]; type: functional;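 further: stimulated with 30 nM MCH peptide agonist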
Vero [6] = assay: Vero E6 cell cytotoxicity, SAR follow-up, cytotoxicity control for West Nile virus antiviral project, synthesized analogs (AID 2244); type: functional; details: Chlorocebus sabaeus
Vero [7] = assay: cytotoxicity of synthesized analogs in Vero cells, SAR follow-up, cytotoxicity control for West Nile virus antiviral project, cell-based, set II (AID 2402); type: functional; details: Chlorocebus sabaeus
Vero [8] = assay: West Nile virus antiviral activity, cell-based, CPE readout (AID 1621); type: functional; details: Chlorocebus sabaeus
Vero [9] = assay: cytotoxicity of synthesized analogs in Vero 76, SAR follow-up, cytotoxicity control for West Nile virus antiviral project, Vero 76 cells (AID 2414); type: functional; details: Chlorocebus sabaeus
Vero [10] = assay: West Nile virus CPE inhibition, SAR follow-up, cell-based, synthesized analogs (AID 2238); type: functional; details: Chlorocebus sabaeus
[11] = biological target: G2/mitotic-specific cyclin-B1 (Homo sapiens, UniProt P14635); assay: G2/M cell cycle arrest in HeLa, late-stage follow-up, mechanism study for Wee1 degradation inhibitor project, FACS, panel member Cyclin B Degradation (AID 2088)
Wee1-like protein kinase = Wee1-like protein kinase (Homo sapiens, UniProt P30291); assay: G2/M cell cycle arrest in HeLa, late-stage follow-up, mechanism study for Wee1 degradation inhibitor project, FACS, panel member Wee1 Degradation (AID 2088)
Vero [12] = assay: Vero cell cytotoxicity, cytotoxicity control for flavivirus capping enzyme inhibitors (AID 588742); type: functional; details: Chlorocebus sabaeus
[13] = biological target: T3, Runt-related transcription factor 1/Core-binding factor subunit beta (Homo sapiens, UniProt Q01196+Q13951); assay: Confirmation of compounds inhibiting the binding between the RUNX1 Runt domain and CBFb-SMMHC via a fluorescence resonance energy transfer (FRET) assay. [Related pubchem assays (depositor defined):AID1434, AID1438, AID1496, AID1550, AID1645]; type: protein assay
[14] = biological target: T3, Runt-related transcription factor 1/Core-binding factor subunit beta; assay: Confirmation of compounds inhibiting the binding between the RUNX1 Runt domain and CBFb-SMMHC via a time resolved fluorescence resonance energy transfer (TR-FRET) assay. [Related pubchem assays (depositor defined):AID1434, AID1438, AID1496, AID1560, AID1645]; type: protein assay
[15] = biological target: T3, Runt-related transcription factor 1/Core-binding factor subunit beta; assay: inhibitors of RUNX1 Runt–CBFb-SMMHC binding, primary screen, biochemical, FRET, Cerulean-Runt, Venus-CBFb-SMMHC, uHTS (AID 1434); type: protein assay;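 further: partner is the CBFb-SMMHC leukemia fusion protein rather than wild-type CBFb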
INS1 = assay: beta cell apoptosis inhibitors, cytokine rescue, dose response, luminescence, retest (AID 449756); type: functional, cell-based; details: Rattus norvegicus;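 further: cell death triggered by IL-1 beta plus TNF-alpha plus IFN-gamma mixture; protective hits raise ATP signal compared with cytokine alone wells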
[16] = biological target: T3, Runt-related transcription factor 1/Core-binding factor subunit beta; assay: inhibitors of RUNX1 Runt–CBFb-SMMHC binding, biochemical, TR-FRET (AID 1438); type: protein assay

## CCOc1ccc(NC(=O)Nc2ccc3nc(-c4ccco4)c(-c4ccco4)nc3c2)cc1
[1]
  IC50: 10.4 µM (active)

## O=C(NC1CCCCC1)c1cc2nc3c(c(C(F)(F)F)n2n1)CCCC3
Troponin, cardiac muscle
  EC50: > 71.5 µM (inactive)

## O=C(C1CCCN(S(=O)(=O)Cc2ccccc2)C1)N1CCC(Cc2ccccc2)CC1 (stereo not given)
[2]
  IC50: > 31.5 µM (inactive)
Beta-galactosidase
  EC50: > 31.5 µM (inactive)
[3]
  IC50: > 32 µM
[4]
  EC50: 4.73 µM (active)

## COC(=O)c1cnn(-c2ccc(C(C)C)cc2)c(=O)c1Oc1ccc(OC)cc1
[5]
  IC50: 6.9 µM (active)

## O=C(CSc1nc2ccccc2c(=O)n1-c1ccc(F)cc1)Nc1ccc2c(c1)CCC2
Vero [6]
  CC50: > 80 µM (active)
Vero [7]
  CC50: > 200 µM (active)
Vero [8]
  IC50: 20.6 µM (active)
Vero [9]
  CC50: > 133 µM (active)
Vero [10]
  IC50: 24.5 µM (active)

## COc1ccc(C(=O)Nc2cc(C)nn2-c2nc(C)cc(O)n2)cc1
[11]
  EC50: > 49.7 µM (inactive)
Wee1-like protein kinase
  EC50: > 49.7 µM (inactive)

## O=C(c1cccnc1)N(c1cc2sc(=O)oc2c2ccccc12)S(=O)(=O)c1ccccc1
Vero [12]
  CC50: > 40 µM (active)
[13]
  IC50: > 100 µM (inactive)
[14]
  IC50: > 100 µM (inactive)
[15]
  IC50: > 100 µM (inactive)
INS1
  AC50: 6.65 µM (active)
[16]
  IC50: > 100 µM (inactive)
